{"source": "patent US20170196842A1", "about": "“METHODS OF TREATMENT USING A 1,2,4-OXADIAZOLE BENZOIC ACID” (PTC Therapeutics, Inc., priority 2014, published 2017)", "key": {"[1]": {"system": "Idua-W402X mice", "test": "Tissue GAG levels in the nonsense-mutation Hurler mouse model, Compound 1 given in chow", "assay_type": "in vivo", "procedure": "Compound 1 was administered to Idua-W402X mice by mixing Compound 1 into solid mouse chow at concentrations of 0.1%. 0.3% or 1.0% (w/w) for 2 weeks, after which time GAG levels in the brain, spleen, heart, liver, lung, and kidney tissues were quantified.\nThe effect of Compound 1 on iduronidase activity as a result of readthrough of the premature stop codon present in the Idua gene (Idua-W392X) was determined in a nonsense-mutation containing mouse model of Hurler syndrome, referred to as the Idua-W392X Hurler mouse. The study initiated when mice were 3-4 weeks old.\nHomozygous Idua-W392X mice were offered food prepared with or without Compound 1 for 14 days. Wild type animals received chow without Compound 1 for 14 days. Assay results were obtained from tissues isolated from wild type (+/+) and homozygous Idua-W392X (−/−) mice after 14 days of treatment. Briefly, Compound 1 was dissolved in water, mixed into pulverized chow, shaped into pellets and dried.\nFollowing the 14-day treatment period, mice were anesthetized using isoflurane and transcardially perfused with 20 mL saline prior to tissue collection. At the time of sacrifice, brain, liver, heart, lung, spleen and kidney were collected and frozen at −80° C. until used for determination of GAG levels.\n(§1) GAG levels were determined using the Blyscan Sulfated GAG Assay (Biocolor Ltd, UK). Briefly, 50 μL of each lysate was added to 500 μL of the Blyscan Dye Reagent and mixed by vortexing. The mixture was incubated at room temperature for 30 minutes, vortexing every 5 minutes. The dye-bound GAGs were isolated from the solution by centrifuging for 10 minutes at 10,000 g at room temperature. A total of 500 μL of the Blyscan Dye Dissociation Reagent was added to the […] from each sample. The samples were vortexed and incubated for 10 minute at room temperature. The entire volume of each sample was then placed into a cuvette and the absorbance was measured at a wavelength of 656 nm. The total amount of sulfated GAGs precipitated from each sample was determined from a standard curve using chondroitin 4-sulfate. The total protein concentration in each lysate was determined using the Bio-Rad protein assay with a standard curve generated using bovine serum albumin."}, "[2]": {"system": "Mouse embryonic fibroblasts (MEFs)", "test": "Cell toxicity/stress (visual inspection) and total protein concentration in MEFs", "assay_type": "cell-based", "conditions": "24 hours", "procedure": "The greatest reduction of GAG levels occurred at 10 μg/mL with decreased reduction of GAG levels at concentrations above 20 μg/mL. […] Cell viability was determined by quantifying the total protein concentration in each lysate.\nThe effect of Compound 1 on iduronidase activity as a result of readthrough of the premature stop codon present in the Idua gene was determined in an in vitro GAG accumulation assay. This assay utilized primary fibroblasts isolated from 13 day-old +/+ and −/− Idua-W392X mouse embryos. Mouse embryonic fibroblasts (MEFs) were isolated from 13 day-old wild type and homozygous Idua-W392X mouse embryo littermates. The cells were grown in Dulbecco's Modified Eagle Media (DMEM) containing 10% bovine calf serum (BCS)+1% non-essential amino acids+1% penicillin/streptomycin at 37° C. and 5% CO2. The MEFs were isolated and grown on collagen-coated plates until ˜50% confluent. MEFs from Idua-W392X mice were treated with increasing concentrations of Compound 1 dissolved in DMSO to a final concentration of 0.2%. Cells were incubated with Compound 1 for 24 hours. Controls included untreated wild type and untreated Idua-W392X MEFs. […]\nThe total protein concentration in each lysate was determined using the Bio-Rad protein assay with a standard curve generated using bovine serum albumin."}, "[3]": {"system": "Mouse embryonic fibroblasts (MEFs) isolated from the Idua-W402X mice", "test": "GAG levels in cultured mouse embryonic fibroblasts from the nmHurler mouse model (Blyscan Sulfated GAG Assay)", "assay_type": "cell-based", "conditions": "24 hours", "procedure": "nmMPS I is caused by the lack of the lysosomal enzyme IDUA and results in the accumulation of GAGs in tissues. Therefore, GAG levels can be monitored to assess the efficacy of treatment for this disease. In the nmHurler mouse model of nmMPS I, the Idua-W402X Hurler mouse IDUA gene (TGG→TAG) harbors a W392X mutation in exon 9, corresponding to the W402X mutation found in approximately 30 to 50% of nmMPS I patients. Mouse embryonic fibroblasts (MEFs) isolated from the Idua-W402X mice were treated with Compound 1 at concentrations of 0, 1, 2.5, 5, 10, 20, and 40 μg/mL for 24 hours in 0.2% DMSO. After 24 hours, cells were lysed and the levels of GAGs were quantified.\nThe effect of Compound 1 on iduronidase activity as a result of readthrough of the premature stop codon present in the Idua gene was determined in an in vitro GAG accumulation assay. This assay utilized primary fibroblasts isolated from 13 day-old +/+ and −/− Idua-W392X mouse embryos. Mouse embryonic fibroblasts (MEFs) were isolated from 13 day-old wild type and homozygous Idua-W392X mouse embryo littermates. The cells were grown in Dulbecco's Modified Eagle Media (DMEM) containing 10% bovine calf serum (BCS)+1% non-essential amino acids+1% penicillin/streptomycin at 37° C. and 5% CO2. The MEFs were isolated and grown on collagen-coated plates until ˜50% confluent. MEFs from Idua-W392X mice were treated with increasing concentrations of Compound 1 dissolved in DMSO to a final concentration of 0.2%. Cells were incubated with Compound 1 for 24 hours. Controls included untreated wild type and untreated Idua-W392X MEFs. After 24 hours, cells were visually inspected for signs of cytotoxicity and cell stress and then lysed using M-Per Protein Reagent (Pierce) containing protease inhibitors (Complete-mini; Roche) per the manufacturer's instructions. The supernatant was used to determine glycosaminoglycan (GAG) levels, as described below.\nas §1, with “μl” for “μL”, “temperature.” for “temperature. A total of”, “The samples were vortexed and incubated for 10 minute at room temperature.” left out"}, "[4]": {"test": "Weight gain and food intake of mice given Compound 1 in chow", "assay_type": "in vivo, C57BL/6J mice", "conditions": "1.0% (w/w) in chow", "from_the_text": "Mice receiving food containing 1.0% (w/w) Compound 1 are 45% less food than mice receiving the control chow. However, a reduction in weight gain would not be expected to elicit a reduction in tissue GAG levels in the pharmacology studies."}, "[5]": {"conditions": "Idua-W402X (W392X) mice, 0.1%, 0.3%, 1.0% (w/w) chow, 14 days"}, "[6]": {"conditions": "Idua-W402X mice, 0.1% (w/w) in chow, 2 weeks"}, "[7]": {"conditions": "Idua-W402X mice, 0.3% (w/w) in chow, 2 weeks"}, "[8]": {"conditions": "Idua-W402X mice, 1.0% (w/w) in chow, 2 weeks"}}, "note": "“Also recorded” adds a separate entry of the source."}
{"smiles": "O=C(O)c1cccc(-c2noc(-c3ccccc3F)n2)c1", "note": "[Compound 1, 3-[5-(2-fluoro-phenyl)-[1,2,4]oxadiazol-3-yl]-benzoic acid]", "values": [{"measurement": "Nonsense suppression activity as determined by decreased GAG levels in multiple tissues", "setting": "[1]; Idua-W392X mice, chow, 14 days", "value": "concentration-dependent nonsense suppression activity"}, {"measurement": "Compound 1 concentration in chow giving maximal reduction of GAG levels in brain, spleen, heart and lung", "setting": "[1]; [5]", "value": 0.1, "unit": "%"}, {"measurement": "Compound 1 concentration in chow giving maximal reduction of liver GAG levels", "setting": "[1]; [5]", "value": 0.3, "unit": "%"}, {"measurement": "Effect on GAG levels in the kidney", "setting": "[1]; Idua-W402X (W392X) mice, any dose (0.1-1.0% chow)", "value": "No statistically significant effect"}, {"measurement": "Reduction in Excess GAG Levels, Brain", "setting": "[1]; [6]", "value": 70, "unit": "%"}, {"measurement": "Reduction in Excess GAG Levels, Heart", "setting": "[1]; [6]", "value": 36, "unit": "%"}, {"measurement": "Reduction in Excess GAG Levels, Kidney", "setting": "[1]; [6]", "value": 0, "unit": "%"}, {"measurement": "Reduction in Excess GAG Levels, Liver", "setting": "[1]; [6]", "value": 0, "unit": "%"}, {"measurement": "Reduction in Excess GAG Levels, Lung", "setting": "[1]; [6]", "value": 19, "unit": "%"}, {"measurement": "Reduction in Excess GAG Levels, Spleen", "setting": "[1]; [6]", "value": 78, "unit": "%"}, {"measurement": "GAG levels achieved in the brain and spleen", "setting": "[1]; Idua-W402X mice, 0.1% in chow, 2 weeks", "value": "near normal GAG levels"}, {"measurement": "Reduction in Excess GAG Levels, Brain", "setting": "[1]; [7]", "value": 37, "unit": "%"}, {"measurement": "Reduction in Excess GAG Levels, Heart", "setting": "[1]; [7]", "value": 0, "unit": "%"}, {"measurement": "Reduction in Excess GAG Levels, Kidney", "setting": "[1]; [7]", "value": 0, "unit": "%"}, {"measurement": "Reduction in Excess GAG Levels, Liver", "setting": "[1]; [7]", "value": 53, "unit": "%"}, {"measurement": "Reduction in Excess GAG Levels, Lung", "setting": "[1]; [7]", "value": 11, "unit": "%"}, {"measurement": "Reduction in Excess GAG Levels, Spleen", "setting": "[1]; [7]", "value": 57, "unit": "%"}, {"measurement": "Reduction in Excess GAG Levels, Brain", "setting": "[1]; [8]", "value": 28, "unit": "%"}, {"measurement": "Reduction in Excess GAG Levels, Heart", "setting": "[1]; [8]", "value": 0, "unit": "%"}, {"measurement": "Reduction in Excess GAG Levels, Kidney", "setting": "[1]; [8]", "value": 0, "unit": "%"}, {"measurement": "Reduction in Excess GAG Levels, Liver", "setting": "[1]; [8]", "value": 17, "unit": "%"}, {"measurement": "Reduction in Excess GAG Levels, Lung", "setting": "[1]; [8]", "value": 14, "unit": "%"}, {"measurement": "Reduction in Excess GAG Levels, Spleen", "setting": "[1]; [8]", "value": 11, "unit": "%"}, {"measurement": "Changes in total protein concentration (cell viability)", "setting": "[2]; 0 to 40 μg/mL", "value": "No notable changes"}, {"measurement": "Signs of cellular toxicity or stress (cells rounding up or floating, changes in cell density)", "setting": "[2]; up to the highest concentration tested (40 μg/mL)", "value": "No signs of cellular toxicity or stress; also recorded: No signs of cell toxicity or stress"}, {"measurement": "Dose-response relationship for GAG reduction", "setting": "[3]; Idua-W392X MEFs", "value": "U shaped dose-response relationship"}, {"measurement": "Nonsense suppression activity as determined by GAG levels", "setting": "[3]; Idua-W392X MEFs", "value": "concentration dependent nonsense suppression activity"}, {"measurement": "Concentration giving the greatest reduction of GAG levels", "setting": "[3]; Idua-W402X (W392X) MEFs, 1-40 μg/mL tested", "value": 10, "unit": "µg/mL"}, {"measurement": "Concentrations with decreased reduction of GAG levels", "setting": "[3]; Idua-W402X MEFs", "value": "above 20 μg/mL"}, {"measurement": "Reduction of food intake versus control chow", "setting": "[4]", "value": 45, "unit": "%"}, {"measurement": "Weight gain versus 0.1%, 0.3% doses or vehicle", "setting": "[4]; satellite PK study and Idua-W402X pharmacology studies", "value": "did not gain as much weight"}]}
